The values that follow come from patent US9126952B2, “Morpholinylquinazolines” (Merck Patent GmbH, priority 2010, dated 2015).

The assay concerns the target DNA-PK (Homo sapiens (Human), UniProt P78527). Briefly: DNA-PK/biochemical assay (FlashPlate kinase assay). The settings on record: 5 μM ATP, 90 min, room temperature; read-out: Binding DNA-PK IC50. As for the experimental part:
[…] To this end, 1.5 μg of the DNA-PK/protein complex and 100 ng of biotinylated substrate, such as, for example, PESQEAFADLWKK biotin-NH2 (“biotin-DNA-PK peptide”), in a total volume of 36.5 μl (34.25 mM HEPES/KOH, 7.85 mM Tris-HCl, 68.5 mM KCl, 5 μM ATP, 6.85 mM MgCl2, 0.5 mM EDTA, 0.14 mM EGTA, 0.69 mM DTT, pH 7.4), were incubated at room temperature for 90 min with 500 ng of DNA from calf thymus, 0.1 μCi of 33P-ATP and 1.8% of DMSO per well with or without the test compound. The reaction was stopped using 50 μl/well of 200 mM EDTA. After incubation for a further 30 min at room temperature, the liquid was removed. Each well was washed three times with 100 μl of 0.9% sodium chloride solution. A non-specific reaction (blank value) was determined using 10 μM of a proprietary kinase inhibitor. The radioactivity measurement was carried out by means of a TopCount. IC50 values were calculated in RS1. • Literature: Kashishian et al. (2003) Molecular Cancer Therapeutics 1257.

As a reminder, the IC50 is the concentration needed to halve the response being measured.

As to `c1nc(N2CCCCC2)c2ccc(N3CCOCC3)cc2n1` [compound 1, 7-Morpholin-4-yl-4-piperidin-1-yl-quinazoline], the IC50 was less than 100 nM.

As to `Clc1nc(N2CCCCC2)c2ccc(N3CCOCC3)cc2n1` [compound 2], the IC50 is less than 100 nM. `COc1ccc(C2CCCN(c3ncnc4cc(N5CCOCC5)ccc34)C2)cc1` (centres unmarked) [compound 3, 4-[3-(4-Methoxy-phenyl)piperidin-1-yl]-7-morpholin-4-yl-quinazoline]: the IC50 was in the range of 100 to 500 nM. The figure for `c1ccc(C2CCCN(c3ncnc4cc(N5CCOCC5)ccc34)C2)cc1` (centres unmarked) [compound 4, 7-Morpholin-4-yl-4-(3-phenylpiperidin-1-yl)quinazoline] is less than 100 nM; for `c1ccc([C@@H]2CCCN(c3ncnc4cc(N5CCOCC5)ccc34)C2)cc1` [compound 5, 7-Morpholin-4-yl-4-((S)-3-phenyl-piperidin-1-yl)-quinazoline] it is 100 to 500 nM; for `c1ccc([C@H]2CCCN(c3ncnc4cc(N5CCOCC5)ccc34)C2)cc1` [compound 6, 7-Morpholin-4-yl-4-((R)-3-phenyl-piperidin-1-yl)-quinazoline] it is less than 100 nM. `c1nc(N2CCCC2)c2ccc(N3CCOCC3)cc2n1` [compound 7, 7-Morpholin-4-yl-4 pyrrolidin-1-yl-quinazoline]: the IC50 fell in the range of 100 to 500 nM.

On to `c1nc(N2CCCCCC2)c2ccc(N3CCOCC3)cc2n1` [compound 8, 4-Azepan-1-yl-7-morpholin-4-yl-quinazoline], for which the IC50 lay within 100 to 500 nM. Regarding `Fc1ccc2[nH]cc(C3CCCN(c4ncnc5cc(N6CCOCC6)ccc45)C3)c2c1` (centres unmarked) [compound 9, 4-[3-(5-Fluoro-1H-indol-3-yl)piperidin-1-yl]-7-morpholin-4 ylquinazoline], the half-maximal inhibitory concentration (IC50) lay within 500 to 1000 nM. `c1nc(N2CCCC(CC3CCCCC3)C2)c2ccc(N3CCOCC3)cc2n1` (centres unmarked) [compound 10]: the IC50 lay in the range of 500 to 1000 nM.

Consider `c1ccc(C[C@@H]2CCCN(c3ncnc4cc(N5CCOCC5)ccc34)C2)cc1` [compound 11, 4-((S)-3-Benzyl-piperidin-1-yl)-7-morpholin-4-yl-quinazoline], for which the IC50 lay within 100 to 500 nM. Take `CC1CCCN(c2ncnc3cc(N4CCOCC4)ccc23)C1` (centres unmarked) [compound 12, 4-(3-Methylpiperidin-1-yl)-7-morpholin-4-ylquinazoline]: the IC50 fell in the range of 100 to 500 nM. The figure for `c1ccn(CC2CCCN(c3ncnc4cc(N5CCOCC5)ccc34)C2)c1` (centres unmarked) [compound 13, 7-Morpholin-4-yl-4-(3-pyrrol-1-ylmethyl-piperidin-1-yl)-quinazoline] is less than 100 nM; for `c1ccc2sc(C3CCCN(c4ncnc5cc(N6CCOCC6)ccc45)C3)nc2c1` (centres unmarked) [compound 14, 4-(3-Benzothiazol-2-ylpiperidin-1-yl)-7-morpholin-4-yl-quinazoline] it is less than 100 nM; for `OC1(c2ccccc2)CCCN(c2ncnc3cc(N4CCOCC4)ccc23)C1` (centres unmarked) [compound 15, 1-(7-Morpholin-4-yl-quinazoline-4-yl)-3-phenylpiperidin-3-ol] it is 500 to 1000 nM. In the case of `O=C(c1ccc(F)cc1)C1CCCN(c2ncnc3cc(N4CCOCC4)ccc23)C1` (centres unmarked) [compound 16, (4-Fluorophenyl)-[1-(7-morpholin-4-yl-quinazoline-4-yl)-piperidin-3-yl]-methanone], the IC50 fell in the range of 100 to 500 nM.

`NC(=O)C1CCCN(c2ncnc3cc(N4CCOCC4)ccc23)C1` (centres unmarked) [compound 17, 1-(7-Morpholin-4-yl-quinazoline-4-yl)-piperidin-3-carboxamide]: the IC50 is 500 to 1000 nM. For `CCOCC1CCCN(c2ncnc3cc(N4CCOCC4)ccc23)C1` (centres unmarked) [compound 18, 4-(3-Ethoxymethyl-piperidin-1-yl)-7-morpholin-4-yl-quinazoline], the IC50 fell in the range of 100 to 500 nM. `Cc1noc(C2CCCN(c3ncnc4cc(N5CCOCC5)ccc34)C2)n1` (centres unmarked) [compound 19, 4-[3-(3-Methyl-1,2,4-oxadiazol-5-yl)-piperidin-1-yl]-7-morpholin-4-yl-quinazoline]: the IC50 was 500 to 1000 nM. As for `O=C(C1CCCN(c2ncnc3cc(N4CCOCC4)ccc23)C1)N1CCCCC1` (centres unmarked) [compound 20, [1-(7-Morpholin-4-yl-quinazoline-4-yl)-piperidin-3-yl]-piperidin-1-yl-methanone], the IC50 lay in the range of 100 to 500 nM.

On to `c1nc(N2CCCC(CN3CCOCC3)C2)c2ccc(N3CCOCC3)cc2n1` (centres unmarked) [compound 21, 7-Morpholin-4-yl-4-(3-morpholin-4-ylmethylpiperidin-1-yl)quinazoline], for which the IC50 was 500 to 1000 nM. Take `COc1cccc(C2CCCN(c3ncnc4cc(N5CCOCC5)ccc34)C2)c1` (centres unmarked) [compound 22, 4-[3-(3-Methoxy-phenyl)piperidin-1-yl]-7-morpholin-4-yl-quinazoline]: the IC50 was less than 100 nM. As for `c1cn(CC2CCCN(c3ncnc4cc(N5CCOCC5)ccc34)C2)cn1` (centres unmarked) [compound 23], the IC50 is less than 100 nM. Take `c1ccc2[nH]c(C3CCCN(c4ncnc5cc(N6CCOCC6)ccc45)C3)nc2c1` (centres unmarked) [compound 24, 4-[3-(1H-Benzo-imidazol-2-yl)-piperidin-1-yl]-7-morpholin-4-yl-quinazoline]: the IC50 lay within 500 to 1000 nM. Regarding `Clc1nc(N2CCCC(Cn3ccnc3)C2)c2ccc(N3CCOCC3)cc2n1` (centres unmarked) [compound 25, 2-Chloro-4-(3-imidazol-1-ylmethyl-piperidin-1-yl)-7-morpholin-4-yl-quinazoline], the IC50 is less than 100 nM. `c1ccc2oc(C3CCCN(c4ncnc5cc(N6CCOCC6)ccc45)C3)nc2c1` (centres unmarked) [compound 26, 4-(3-Benzoxazol-2-ylpiperidin-1-yl)-7-morpholin-4-yl-quinazoline]: the half-inhibitory concentration (IC50) lay in the range of 100 to 500 nM. Take `Cc1cccc(C2CCCN(c3ncnc4cc(N5CCOCC5)ccc34)C2)c1` (centres unmarked) [compound 27, 7-Morpholin-4-yl-4-(3-m-tolylpiperidin-1-yl)quinazoline]: the IC50 is less than 100 nM. Consider `FC(F)(F)c1cccc(C2CCCN(c3ncnc4cc(N5CCOCC5)ccc34)C2)c1` (centres unmarked) [compound 28, 7-Morpholin-4-yl-4-[3-(3-trifluoromethyl-phenyl)piperidin-1-yl]quinazoline], for which the IC50 was in the range of 100 to 500 nM.

Turning to `Cn1ccnc1CC1CCCN(c2ncnc3cc(N4CCOCC4)ccc23)C1` (centres unmarked) [compound 29, 4-[3-(1-Methyl-1H-imidazol-2-ylmethyl)-piperidin-1-yl]-7-morpholin-4-yl-quinazoline], the IC50 is less than 100 nM. In the case of `Clc1nc(N2CCCC(Cn3cccc3)C2)c2ccc(N3CCOCC3)cc2n1` (centres unmarked) [compound 30, 2-Chloro-7-morpholin-4-yl-4-(3-pyrrol-1-ylmethyl-piperidin-1-yl)-quinazoline], the IC50 was less than 100 nM. The figure for `c1cnc(CC2CCCN(c3ncnc4cc(N5CCOCC5)ccc34)C2)nc1` (centres unmarked) [compound 31] is less than 100 nM; for `c1csc(CC2CCCN(c3ncnc4cc(N5CCOCC5)ccc34)C2)n1` (centres unmarked) [compound 32] it is less than 100 nM. As to `c1csc(CC2CCCN(c3ncnc4cc(N5CCOCC5)ccc34)C2)c1` (centres unmarked) [compound 33], the IC50 was less than 100 nM. With `Cc1nc(N2CCCCC2)c2ccc(N3CCOCC3)cc2n1` [compound 34, 2-Methyl-7-morpholin-4-yl-4-piperidin-1-yl-quinazoline], the IC50 is greater than 1000 nM. The figure for `c1ccc2sc(CC3CCCN(c4ncnc5cc(N6CCOCC6)ccc45)C3)cc2c1` (centres unmarked) [compound 35, 4-(3-Benzo[b]-thiophen-2-ylmethyl-piperidin-1-yl)-7-morpholin-4-yl-quinazoline] is 100 to 500 nM; for `Clc1nc(N2CCCC(Cc3nccs3)C2)c2ccc(N3CCOCC3)cc2n1` (centres unmarked) [compound 36, 2-Chloro-7-morpholin-4-yl-4-(3-thiazol-2-ylmethyl-piperidin-1-yl)-quinazoline] it is less than 100 nM; for `C1=C(c2cccs2)CN(c2ncnc3cc(N4CCOCC4)ccc23)CC1` [compound 37, 7-Morpholin-4-yl-4-(5-thiophen-2-yl-3,6-dihydro-2H-pyridin-1-yl)quinazoline] it is 100 to 500 nM.

Consider `COc1cccc(C(O)C2CCCN(c3ncnc4cc(N5CCOCC5)ccc34)C2)c1` (centres unmarked) [compound 38, (3-Methoxyphenyl)-[1-(7-morpholin-4-yl-quinazolin-4-yl)-piperidin-3-yl]-methanol], for which the IC50 is less than 100 nM. For the compound `COc1nc(N2CCCCC2)c2ccc(N3CCOCC3)cc2n1` [compound 39, 2-Methoxy-7-morpholin-4-yl-4-piperidin-1-yl-quinazoline], the IC50 is greater than 1000 nM. Turning to `c1csc(C2CCCN(c3ncnc4cc(N5CCOCC5)ccc34)C2)c1` (centres unmarked) [compound 40, 7-Morpholin-4-yl-4-(3-thiophen-2-yl-piperidin-1-yl)-quinazoline], the IC50 was less than 100 nM.

As to `COc1cccc(CC2CCCN(c3ncnc4cc(N5CCOCC5)ccc34)C2)c1` (centres unmarked) [compound 41, 4-[3-(3-Methoxy-benzyl)piperidin-1-yl]-7-morpholin-4-yl-quinazoline], the IC50 was less than 100 nM. The figure for `COc1ccc(CC2CCCN(c3ncnc4cc(N5CCOCC5)ccc34)C2)cc1OC` (centres unmarked) [compound 42, 4[3-(3,4-Dimethoxy-benzyl)piperidin-1-yl]-7-morpholin-4-yl-quinazoline] is 100 to 500 nM; for `c1ccc2sc(CC3CCCN(c4ncnc5cc(N6CCOCC6)ccc45)C3)nc2c1` (centres unmarked) [compound 43, 4-(3-Benzothiazol-2-ylmethylpiperidin-1-yl)-7-morpholin-4-yl-quinazoline] it is 100 to 500 nM; for `c1nc(N2CCCC(Cc3ccsc3)C2)c2ccc(N3CCOCC3)cc2n1` (centres unmarked) [compound 44] it is less than 100 nM.
